Structures can show the parent of a compound that is named as a salt.

As a reminder, the melting point is the temperature of the solid-liquid transition.

Compound `CN(C)CCCNc1ncc2c(n1)-c1ccccc1[C@H](c1ccc(Cl)c(Cl)c1)C2` [Example 13, (S)—N^1-(6-(3,4-dichlorophenyl)-5,6-dihydrobenzo[h]quinazolin-2-yl)-N^3,N^3-dimethylpropane-1,3-diamine] yielded a melting point of 59 to 62 °C. `CN(CCc1ccc(Nc2ncc3c(n2)-c2ccccc2[C@H](c2ccccc2F)C3)cc1)C1CCCCC1` (as salt: HCl) [Example 95, (R)—N-(4-(2-(cyclohexyl(methyl)amino)ethyl)phenyl)-6-(2-fluorophenyl)-5,6-dihydrobenzo[h]quinazolin-2-amine] returned a melting point of 158 to 164 °C. Under `COCCN1CCN(CCc2ccc(Nc3ncc4c(n3)-c3ccccc3[C@@H](c3ccc(F)c(F)c3)C4)cc2)CC1` (as salt: hydrochloride) [Example 90, (R)-6-(3,4-difluorophenyl)-N-(4-(2-(4-(2-methoxyethyl)piperazin-1-yl)ethyl)phenyl)-5,6-dihydrobenzo[h]quinazolin-2-amine hydrochloride] stands 190 to 192 °C. In the case of `CCCCN(C)CCc1cccc(Nc2ncc3c(n2)-c2ccccc2[C@H](c2ccccc2F)C3)c1` (as salt: hydrochloride), the melting point lay in the range of 163 to 167 °C. Take `CCN(CCc1ccc(Nc2ncc3c(n2)-c2ccccc2C(c2cccc(Br)c2)C3)cc1)Cc1ccncc1` (centres unmarked) [Example 41, 6-(3-bromophenyl)-N-(4-(2-(ethyl(pyridin-4-ylmethyl)amino)ethyl)phenyl)-5,6-dihydrobenzo[h]quinazolin-2-amine]: the melting point fell in the range of 88 to 90 °C. `Brc1cccc(C2Cc3cnc(Nc4ccc(CCNCCN5CCOCC5)cc4)nc3-c3ccccc32)c1` (centres unmarked) [Example 45, 6-(3-bromophenyl)-N-(4-(2-(2-morpholinoethylamino)ethyl)phenyl)-5,6-dihydrobenzo[h]quinazolin-2-amine] yielded a melting point of 85 to 87 °C.

As to `COCCN1CCN(CCc2ccc(Nc3ncc4c(n3)-c3ccccc3[C@H](c3ccc(F)c(F)c3)C4)cc2)CC1` (as salt: hydrochloride) [Example 83, N-(4-(2-(4-(2-(S)-6-(3,4-difluorophenyl)-N-(4-(2-(4-(2-methoxyethyl)piperazin-1-yl)ethyl)phenyl)-5,6-dihydrobenzo[h]quinazolin-2-amine hydrochloride], the melting point lay in the range of 190 to 192 °C. In the case of `CCCCN(C)CCc1ccc(Nc2ncc3c(n2)-c2ccccc2[C@H](c2cccc(Br)c2)C3)cc1` (as salt: hydrochloride) [Example 80, (S)-6-(3-bromophenyl)-N-(4-(2-(butyl(methyl)amino)ethyl)phenyl)-5,6-dihydrobenzo[h]quinazolin-2-amine hydrochloride] it was 146 to 153 °C; in that of `Nc1ncc2c(n1)-c1ccccc1[C@H](c1ccc(Cl)c(Cl)c1)C2`, 159 to 160 °C. As for `COCCN1CCN(CCc2cc(Nc3ncc4c(n3)-c3ccccc3[C@H](c3ccccc3F)C4)ccc2F)CC1` (as salt: hydrochloride) [Example 175, (R)—N-(4-fluoro-3-(2-(4-(2-methoxyethyl)piperazin-1-yl)ethyl)phenyl)-6-(2-fluorophenyl)-5,6-dihydrobenzo[h]quinazolin-2-amine hydrochloride salt], the melting point lay within 199 to 201 °C.

As to `CCCCN(C)CCc1ccc(Nc2ncc3c(n2)-c2ccccc2C(c2cccc(Br)c2)C3)cc1` (centres unmarked) [Example 26, 6-(3-bromophenyl)-N-(4-(2-(butyl(methyl)amino)ethyl)phenyl)-5,6-dihydrobenzo[h]quinazolin-2-amine], the melting point was 66 to 68 °C. On to `CCCCN(C)CCc1ccc(Nc2ncc3c(n2)-c2ccccc2[C@H](c2ccc(F)cc2)C3)cc1` [Example 99, (S)—N-(4-(2-(butyl(methyl)amino)ethyl)phenyl)-6-(4-fluorophenyl)-5,6-dihydrobenzo[h]quinazolin-2-amine], for which the melting point is 164 to 166 °C.

In the case of `COCCN(CCOC)CCc1ccc(Nc2ncc3c(n2)-c2ccccc2C(c2cccc(Br)c2)C3)cc1` (centres unmarked) [Example 42, N-(4-(2-(bis(2-methoxyethyl)amino)ethyl)phenyl)-6-(3-bromophenyl)-5,6-dihydrobenzo[h]quinazolin-2-amine], the melting point is 58 to 60 °C. With `CN(C)CCNCCc1ccc(Nc2ncc3c(n2)-c2ccccc2C(c2cccc(Br)c2)C3)cc1` (centres unmarked) [Example 44, N^1-(4-(6-(3-bromophenyl)-5,6-dihydrobenzo[h]quinazolin-2-ylamino)phenethyl)-N^2,N^2-dimethylethane-1,2-diamine], the melting point lay in the range of 75 to 77 °C. In the case of `COCCN1CCN(CCc2ccc(Nc3ncc4c(n3)-c3ccccc3C(c3ccc(Cl)cc3)C4)cc2)CC1` (centres unmarked) (as salt: hydrochloride) [Example 56, 6-(4-chlorophenyl)-N-(4-(2-(4-(2-methoxyethyl)piperazin-1-yl)ethyl)phenyl)-5,6-dihydrobenzo[h]quinazolin-2-amine hydrochloride] it was 204 to 214 °C; in that of `Clc1ccc([C@H]2Cc3cnc(Nc4ccc(CCN5CCCCC5)cc4)nc3-c3ccccc32)cc1Cl`, 157 to 158 °C; in that of `CN1CCN(CCc2ccc(Nc3ncc4c(n3)-c3ccccc3C(c3ccccc3C(F)(F)F)C4)cc2)CC1` (centres unmarked) [Example 71, N-(4-(2-(4-methylpiperazin-1-yl)ethyl)phenyl)-6-(2-(trifluoromethyl)phenyl)-5,6 dihydrobenzo[h]quinazolin-2-amine], 157 to 158 °C. In turn, `COCCN1CCN(CCc2cccc(Nc3ncc4c(n3)-c3ccccc3[C@H](c3ccc(Cl)c(Cl)c3)C4)c2)CC1` (as salt: hydrochloride) gave a melting point of 220 to 225 °C. The compound `Fc1ccc([C@@H]2Cc3cnc(Nc4ccc(CCN5CCOCC5)cc4)nc3-c3ccccc32)cc1F` (as salt: hydrochloride) [Example 92, (S)-6-(3,4-difluorophenyl)-N-(4-(2-morpholinoethyl)phenyl)-5,6-dihydrobenzo[h]quinazolin-2-amine hydrochloride] gave a melting point of 97 to 99 °C. Turning to `Brc1cccc(C2Cc3cnc(Nc4ccc(CCNc5ccccc5)cc4)nc3-c3ccccc32)c1` (centres unmarked) [Example 35, 6-(3-bromophenyl)-N-(4-(2-(phenylamino)ethyl)phenyl)-5,6-dihydrobenzo[h]quinazolin-2-amine], the melting point fell in the range of 92 to 94 °C. In the case of `CCCCN(C)CCc1ccc(Nc2ncc3c(n2)-c2ccccc2[C@H](c2ccc(Cl)c(Cl)c2)C3)cc1` (as salt: hydrochloride) [Example 105, (S)—N-(4-(2-(butyl(methyl)amino)ethyl)phenyl)-6-(3,4-dichlorophenyl)-5,6-dihydrobenzo[h]quinazolin-2-amine hydrochloride salt] it was 135 to 145 °C. Under `CN(C)CCN(CCc1ccc(Nc2ncc3c(n2)-c2ccccc2C(c2cccc(Br)c2)C3)cc1)Cc1ccccc1` (centres unmarked) [Example 38, N^1-benzyl-N-1-(4-(6-(3-bromophenyl)-5,6-dihydrobenzo[h]quinazolin-2-ylamino)phenethyl)-N^2,N^2-dimethylethane-1,2-diamine] stands 68 to 70 °C; under `CN1CCN(CCc2cccc(Nc3ncc4c(n3)-c3ccccc3[C@H](c3ccccc3F)C4)c2)CC1` (as salt: hydrochloride) [Example 161, (R)-6-(2-fluorophenyl)-N-(3-(2-(4-methylpiperazin-1-yl)ethyl)phenyl)-5,6-dihydrobenzo[h]quinazolin-2-amine hydrochloride], 182 to 186 °C; under `CN1CCN(CCc2ccc(Nc3ncc4c(n3)-c3ccccc3C(c3ccc(Cl)c(Cl)c3)C4)cc2)CC1` (centres unmarked) [Example 52, 6-(3,4-dichlorophenyl)-N-(4-(2-(4-methylpiperazin-1-yl)ethyl)phenyl)-5,6-dihydrobenzo[h]quinazolin-2-amine], 119 to 121 °C. For `CN(CCc1ccccc1)CCc1ccc(Nc2ncc3c(n2)-c2ccccc2[C@H](c2cccc(Br)c2)C3)cc1` (as salt: HCl) [Example 81, (S)-6-(3-bromophenyl)-N-(4-(2-(methyl(phenethyl)amino)ethyl)phenyl)-5,6-dihydrobenzo[h]quinazolin-2-amine], the melting point is 146 to 153 °C. `CN(CCc1ccccc1)CCc1cccc(Nc2ncc3c(n2)-c2ccccc2[C@H](c2ccc(Cl)c(Cl)c2)C3)c1` (as salt: hydrochloride): the melting point lay within 154 to 157 °C. The compound `COCCN1CCN(CCc2ccc(Nc3ncc4c(n3)-c3ccccc3C(c3cccc(Br)c3)C4)cc2)CC1` (centres unmarked) [Example 32, 6-(3-bromophenyl)-N-(4-(2-(4-(2-methoxyethyl)piperazin-1-yl)ethyl)phenyl)-5,6-dihydrobenzo[h]quinazolin-2-amine] had a melting point of 105 to 107 °C.

Regarding `COCCN1CCN(CCc2ccc(Nc3ncc4c(n3)-c3ccccc3[C@H](c3ccc(Br)cc3)C4)cc2)CC1` (as salt: hydrochloride) [Example 97, (S)-6-(4-bromophenyl)-N-(4-(2-(4-(2-methoxyethyl)piperazin-1-yl)ethyl)phenyl)-5,6-dihydrobenzo[h]quinazolin-2-amine hydrochloride salt], the melting point was 265 to 270 °C. In the case of `NCCc1ccc(Nc2ncc3c(n2)-c2ccccc2C(c2cccc(Br)c2)C3)cc1` (centres unmarked) [Example 34, N-(4-(2-aminoethyl)phenyl)-6-(3-bromophenyl)-5,6-dihydrobenzo[h]quinazolin-2-amine] it was 115 to 117 °C; in that of `CCCCN(C)CCc1ccc(Nc2ncc3c(n2)-c2ccccc2[C@H](c2ccc(F)c(F)c2)C3)cc1` (as salt: hydrochloride) [Example 89, (S)—N-(4-(2-(butyl(methyl)amino)ethyl)phenyl)-6-(3,4-difluorophenyl)-5,6-dihydrobenzo[h]quinazolin-2-amine hydrochloride], 130 to 132 °C; in that of `Brc1cccc(C2Cc3cnc(Nc4ccc(CCN5CCN(c6ccccc6)CC5)cc4)nc3-c3ccccc32)c1` (centres unmarked) [Example 43, 6-(3-bromophenyl)-N-(4-(2-(4-phenylpiperazin-1-yl)ethyl)phenyl)-5,6-dihydrobenzo[h]quinazolin-2-amine], 113 to 115 °C. Under `Nc1ncc2c(n1)-c1ccccc1[C@H](c1ccccc1F)C2` (as salt: hydrochloride) [Example 24, (R)-6-(2-fluorophenyl)-5,6-dihydrobenzo[h]quinazolin-2-amine] stands 154 to 155 °C.
